Here are results for 16 compounds from PubChem BioAssay (NCI).

Each structure is given as a SMILES string.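 The compound was tested at five concentrations on cells cultured in 96-well plates, with a 48-hour exposure period. Abbreviation: GI50, concentration required for 50% inhibition of growth. TGI: total growth inhibition.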

Holding throughout (assay): NCI tumour cell line growth inhibition, 48 h
For test [1], the system named is TK-10 renal.
In test [2] the test system is HCC-2998 colon.
Test [3] has as its system OVCAR-5 ovarian.
Test [4] relates to NCI/ADR-RES ovarian.
Test [5] concerns SK-MEL-2 melanoma.
The test system of test [6] is SK-MEL-28 melanoma.
The test system of test [7] is HS 578T breast.
In test [8] the test system is SK-MEL-5 melanoma.
Test [9] deals with CCRF-CEM leukemia.
Test [10] has as its system NCI-H23 lung.
The test system of test [11] is SR leukemia.
Test [12] has as its system OVCAR-4 ovarian.
In test [13] the test system is CAKI-1 renal.

Turning to `CCC1(CC)C(=O)NN(C(=O)c2ccc(Cl)cc2)C1=O`, the TGI in [1], in test [2], in test [3], in [4], in test [5] and in [6] was greater than 100 µM throughout. The TGI in test [7], in test [8], in [9], in test [10], in test [11] and in test [12] was greater than 100 µM throughout. The TGI in test [13] was greater than 100 µM.
For `CC(C(=O)O)C1Nc2ccccc2NC1=O` (stereo not given), the TGI in test [1], in test [2], in [3], in test [4], in [5] and in test [6] was greater than 100 µM in each case. Besides, the TGI in [7], in test [8], in test [9], in test [10], in test [11] and in [12] was greater than 100 µM each time. The TGI in test [13] was greater than 100 µM.
As to `COCCNC1CCC(=O)c2[nH]c3ccccc3c21` (stereo not given), the TGI in [1], in [2], in [3], in test [4], in [5] and in [6] was greater than 100 µM in each case. Besides, the TGI in [7], in [8], in test [9], in test [10], in [11] and in test [12] was greater than 100 µM in each case. The same compound had a TGI in [13] greater than 100 µM.
With `[O-]/[N+](=N/c1ncc(-c2ccccc2)cn1)c1ncc(-c2ccccc2)cn1`, the TGI in test [1], in test [2], in test [3], in [4], in test [5] and in test [6] was greater than 100 µM in each case. Also, the TGI in [7], in test [8], in test [9], in test [10], in test [11] and in test [12] was greater than 100 µM in each case. In test [13], this compound returned a TGI greater than 100 µM.
`C=C1C(=O)OC2/C=C(\C)CC/C=C(\C)CC(OC(=O)/C(=C/CO)CO)[C@@H]12` (stereo not given in full): the TGI in test [1] is 15.8 µM; in test [2], 33.5 µM; in test [3] it was 31.3 µM; in test [4], 59.6 µM; in [5] it was 34.6 µM; in [6], 31.2 µM. Also, the TGI was 63.4 µM in [7]; 26.1 µM in test [8]; 6.75 µM in test [9]; 29.4 µM in test [10]; greater than 23.8 µM in [11]; 27.5 µM in test [12]. Further, the TGI in test [13] came to 14.1 µM.
`O=C1O/C(=C(/Cl)c2c3ccccc3cc3ccccc23)c2ccccc21`: the TGI in test [1] is greater than 100 µM; in [2], greater than 100 µM; in test [3] it was greater than 100 µM; in test [4], greater than 100 µM; in test [5], 51.2 µM; in test [6] it was greater than 100 µM. For the same compound, the TGI is 59.8 µM in [7]; 30.7 µM in [8]; 59.1 µM in test [9]; 79.9 µM in test [10]; 35.6 µM in [11]; 90.3 µM in [12]. In test [13], this compound showed a TGI greater than 100 µM.
As for `N#CCN1CCN(CC#N)CCN(CC#N)CCN(CC#N)CC1`, the TGI in test [1], in [2], in test [3], in test [4], in test [5] and in [6] was greater than 100 µM in each case. Moreover, the TGI in [7], in test [8], in [9], in test [10], in test [11] and in [12] was greater than 100 µM throughout. Further, the TGI in [13] is greater than 100 µM.
Take `O=C1/C(=C/c2ccc(OC(=O)c3ccc(Cl)cc3)cc2)CCC/C1=C\c1ccc(OC(=O)c2ccc(Cl)cc2)cc1`: the TGI in [1], in [2], in test [3], in test [4], in [5] and in test [6] was greater than 100 µM each time. Further, the TGI in [7], in test [8], in test [9], in test [10], in test [11] and in test [12] was greater than 100 µM in each case. The compound also gave a TGI in test [13] greater than 100 µM.
For `COC(=O)/C=C/C(=O)Nc1cc(Cl)c(Cl)cc1CC(=O)N(C)[C@H]1CCCC[C@@H]1N1CCCC1`, the TGI is 11.1 µM in test [1]; 21.2 µM in test [2]; 32 µM in [3]; 35.1 µM in test [4]; 22 µM in test [5]; 33.7 µM in [6]. The TGI in [7] is 36 µM; in test [8], 22.9 µM; in test [9] it was greater than 100 µM; in test [10], 30.4 µM; in test [11], greater than 28.3 µM; in test [12], greater than 41.6 µM. For the same compound, the TGI in test [13] stood at 38.2 µM.
As for `Cc1c(-c2ccccc2)c(C#N)c2nnn(C)c(=O)n12`, the TGI in [1], in test [2], in test [3], in test [4], in [5] and in test [6] was greater than 100 µM in each case. In addition, the TGI in test [7], in test [8], in test [9], in test [10], in test [11] and in [12] was greater than 100 µM in each case. This compound had a TGI in [13] greater than 100 µM.
As for `CC(=O)c1sc2n(C)c(=O)c3ccccc3[n+]2c1C`, the TGI in test [1], in test [2], in [3], in [4], in test [5] and in test [6] was greater than 100 µM each time. The TGI in test [7], in test [8], in [9], in test [10], in [11] and in test [12] was greater than 100 µM each time. The TGI in test [13] was greater than 100 µM.
In the case of `Cc1ccccc1C1CC(=O)CC(c2ccccc2C)C12C(=O)NC(=S)NC2=O` (stereo not given), the TGI in [1] was greater than 100 µM; in test [2], 25.2 µM; in test [3] it was greater than 100 µM; in test [4] it was greater than 100 µM; in test [5] it was 40.3 µM; in test [6], 44.5 µM. Also, the TGI in test [7] is 97.2 µM; in test [8], 32.7 µM; in [9] it was 70.4 µM; in [10], greater than 100 µM; in [11], greater than 100 µM; in test [12] it was greater than 100 µM. For the same compound, the TGI in test [13] is greater than 100 µM.
On to `CNc1cccc2c1C(C)C[C@]1(C)C(=O)Nc3ccccc3[C@H]21` (stereo not given in full), for which the TGI in [1] was 37.2 µM; in test [2], greater than 100 µM; in test [3] it was greater than 100 µM; in [4] it was 45.4 µM; in test [5], 55.3 µM; in test [6], 91.8 µM. Further, the TGI is 53.6 µM in test [7]; greater than 100 µM in [8]; greater than 100 µM in test [9]; greater than 100 µM in test [10]; 43.3 µM in test [11]; 35.9 µM in test [12]. In addition, in [13], the TGI is 63.7 µM.
On to `O=c1cc(-c2ccc3ccccc3c2)[nH]c2ncccc12`, for which the TGI in test [1], in test [2], in test [3], in test [4], in test [5] and in [6] was greater than 100 µM throughout. Also, the TGI is greater than 100 µM in test [7]; 16.5 µM in [8]; greater than 100 µM in test [9]; greater than 100 µM in test [10]; 6.1 µM in test [11]; greater than 100 µM in test [12]. In test [13], this compound displayed a TGI greater than 100 µM. For the same compound, the GI50 is 3.46 µM in test [8] and 5.63 µM in test [13].
Turning to `COc1cc(OC)c2nc(C)c3c(c2c1)OCC3`, the TGI in [1], in [2], in [3], in test [4], in test [5] and in test [6] was greater than 100 µM each time. Moreover, the TGI in [7], in test [8], in test [9], in test [10], in test [11] and in test [12] was greater than 100 µM in each case. The TGI in [13] is 72 µM.
`N#CCCN(CCCN(C(=O)Nc1ccc(NC(=O)N(CCCN(CCC#N)C(N)=O)c2ccccc2)cc1)c1ccccc1)C(N)=O`: the TGI in [1], in [2], in [3], in test [4], in [5] and in test [6] was greater than 100 µM in each case. Moreover, the TGI in [7], in test [8], in test [9], in test [10], in test [11] and in [12] was greater than 100 µM each time. In [13], the TGI was greater than 100 µM.
